Assays:
[1] = target: Tyrosine-protein kinase ZAP-70 (Homo sapiens) (UniProt P43403); experiment: Inhibition of recombinant full length His-tagged human ZAP70 expressed in baculovirus expression system at 0.5 uM using tyr 07 as substrate in presence of ATP at Km concentration after 1 hr by Z'-LYTE assay relative to control
[2] = target: Serine/threonine-protein kinase TBK1 (Homo sapiens) (UniProt Q9UHD2); experiment: Inhibition of recombinant full length GST-tagged human TBK1 expressed in insect cells at 0.5 uM using Ser/Thr 05 as substrate in presence of ATP at Km concentration after 1 hr by Z'-LYTE assay relative to control
[3] = target: Vascular endothelial growth factor receptor 2 (Homo sapiens) (UniProt P35968); experiment: Inhibition of recombinant His-tagged human KDR cytoplasmic domain (789 to 1356 residues) expressed in baculovirus expression system at 0.5 uM using tyr 01 as substrate in presence of ATP at Km concentration after 1 hr by Z'-LYTE assay relative to control
[4] = target: Fibroblast growth factor receptor 1 (Homo sapiens) (UniProt P11362); experiment: Inhibition of recombinant His-tagged human FGFR1 (308 to 731 resides) expressed in baculovirus expression system at 0.5 uM using tyr 04 as substrate in presence of ATP at Km concentration after 1 hr by Z'-LYTE assay relative to control
[5] = target: Discoidin domain-containing receptor 2 (Homo sapiens) (UniProt Q16832); experiment: Inhibition of recombinant GST-tagged human DDR2 (427 to 855 residues) expressed in baculovirus expression system at 0.5 uM after 1 hr by Lantha screen assay relative to control
[6] = target: Macrophage colony-stimulating factor 1 receptor (Homo sapiens) (UniProt P07333); experiment: Inhibition of recombinant His-tagged human CSF1R cytoplasmic domain expressed in baculovirus expression system at 0.5 uM using tyr 01 as substrate in presence of ATP at Km concentration after 1 hr by Z'-LYTE assay relative to control
[7] = target: Serine/threonine-protein kinase Chk1 (Homo sapiens) (UniProt O14757); experiment: Inhibition of recombinant full-legth His-tagged human CHK1 expressed in baculovirus expression system at 0.5 uM using Ser/Thr 19 as substrate in presence of ATP at Km concentration after 1 hr by Z'-LYTE assay relative to control
[8] = target: Tyrosine-protein kinase BTK (Homo sapiens) (UniProt Q06187); experiment: Inhibition of recombinant full-legth His-tagged human BTK expressed in baculovirus expression system at 0.5 uM using tyr 01 as substrate in presence of ATP at Km concentration after 1 hr by Z'-LYTE assay relative to control
[9] = target: Serine/threonine-protein kinase B-raf (Homo sapiens) (UniProt P15056); experiment: Inhibition of full length GST-tagged human BRAF expressed in baculovirus expression system at 0.5 uM using Ser/Thr 03 as substrate in presence of 100 uM ATP after 1 hr by Z'-LYTE assay relative to control
CYP3A4 = CYP3A4 (Homo sapiens, UniProt P08684); experiment: Inhibition of CYP3A4 in human pooled liver microsomes at 10 uM using midazolam as substrate preincubated for 10 mins followed by NADPH addition and measured after 15 mins by LC/MS/MS analysis relative to control; assay type: ADME; details: probe midazolam
CYP2D6 = CYP2D6 (Homo sapiens, UniProt P10635); experiment: Inhibition of CYP2D6 in human pooled liver microsomes at 10 uM using dextromethorphan as substrate preincubated for 10 mins followed by NADPH addition and measured after 15 mins by LC/MS/MS analysis relative to control; assay type: ADME; details: probe dextromethorphan
CYP1A2 = CYP1A2 (Homo sapiens, UniProt P05177); experiment: Inhibition of CYP1A2 in human pooled liver microsomes at 10 uM using phenacetin as substrate preincubated for 10 mins followed by NADPH addition and measured after 15 mins by LC/MS/MS analysis relative to control; assay type: ADME; details: probe phenacetin
[10] = Intrinsic clearance in rat liver at 1 uM measured up to 1 hr in presence of NADPH by LC-MS/MS analysis; assay type: ADME, tissue-based
[11] = Intrinsic clearance in mouse liver microsomes at 1 uM measured up to 1 hr in presence of NADPH by LC-MS/MS analysis; assay type: ADME, Microsome; details: read-out: CLH
[12] = Metabolic stability in human liver microsomes assessed as compound remaining at 1 uM measured up to 1 hr in absence of NADPH by LC-MS/MS analysis; assay type: ADME, Microsome; details: read-out: Stability
[13] = Metabolic stability in mouse liver microsomes assessed as compound remaining at 1 uM measured up to 1 hr in absence of NADPH by LC-MS/MS analysis; assay type: ADME, Microsome; details: read-out: Stability
[14] = Metabolic stability in mouse liver microsomes assessed as compound remaining at 1 uM measured up to 1 hr in presence of NADPH by LC-MS/MS analysis; assay type: ADME, Microsome; details: read-out: Stability
[15] = Half life in human liver microsomes at 1 uM measured up to 1 hr by LC-MS/MS analysis; assay type: ADME, Microsome
[16] = Half life in rat liver microsomes at 1 uM measured up to 1 hr by LC-MS/MS analysis; assay type: ADME, Microsome
A549 [17] = experiment: Antimetastatic activity against human A549 cells assessed as reduction in number of cell migration after 72 hrs by crystal violet staining based transwell assay; assay type: functional
A549 [18] = experiment: Induction of apoptosis in human A549 cells assessed as late apoptotic cells at 9 uM after 72 hrs by Annexin V-FITC/propidium iodide staining-based flow cytometric analysis (reference value: 1.24%); assay type: functional
A549 [19] = experiment: Induction of apoptosis in human A549 cells assessed as necrotic cells at 3 uM after 72 hrs by Annexin V-FITC/propidium iodide staining-based flow cytometric analysis (reference value: 1.70%); assay type: functional
A549 [20] = experiment: Induction of apoptosis in human A549 cells assessed as early apoptotic cells at 3 uM after 72 hrs by Annexin V-FITC/propidium iodide staining-based flow cytometric analysis (reference value: 2.40%); assay type: functional
A549 [21] = experiment: Induction of apoptosis in human A549 cells assessed as late apoptotic cells at 1 uM after 72 hrs by Annexin V-FITC/propidium iodide staining-based flow cytometric analysis (reference value: 1.24%); assay type: functional
A549 [22] = experiment: Induction of apoptosis in human A549 cells assessed as early apoptotic cells at 1 uM after 72 hrs by Annexin V-FITC/propidium iodide staining-based flow cytometric analysis (reference value: 2.40%); assay type: functional
Focal adhesion kinase 1 = Focal adhesion kinase 1 (Homo sapiens, UniProt Q05397); experiment: Inhibition of recombinant N-terminal GST-tagged human FAK (327 to 1052 residues) expressed in baculovirus expression system using TK as substrate incubated for 50 mins in presence of ATP and measured after 1 hr by HTRF assay
A549 [23] = experiment: cells; details: Homo sapiens, A549, 72 h
Description: Antiproliferative activity against human A549 cells assessed as reduction in cell viability after 72 hrs by MTT assay

MDA-MB-231 = experiment: cells; details: Homo sapiens, MDA-MB-231, 72 h
Description: Antiproliferative activity against human MDA-MB-231 cells assessed as reduction in cell viability after 72 hrs by MTT assay

Sequence of Tyrosine-protein kinase ZAP-70 (Homo sapiens) (P43403 whole entry): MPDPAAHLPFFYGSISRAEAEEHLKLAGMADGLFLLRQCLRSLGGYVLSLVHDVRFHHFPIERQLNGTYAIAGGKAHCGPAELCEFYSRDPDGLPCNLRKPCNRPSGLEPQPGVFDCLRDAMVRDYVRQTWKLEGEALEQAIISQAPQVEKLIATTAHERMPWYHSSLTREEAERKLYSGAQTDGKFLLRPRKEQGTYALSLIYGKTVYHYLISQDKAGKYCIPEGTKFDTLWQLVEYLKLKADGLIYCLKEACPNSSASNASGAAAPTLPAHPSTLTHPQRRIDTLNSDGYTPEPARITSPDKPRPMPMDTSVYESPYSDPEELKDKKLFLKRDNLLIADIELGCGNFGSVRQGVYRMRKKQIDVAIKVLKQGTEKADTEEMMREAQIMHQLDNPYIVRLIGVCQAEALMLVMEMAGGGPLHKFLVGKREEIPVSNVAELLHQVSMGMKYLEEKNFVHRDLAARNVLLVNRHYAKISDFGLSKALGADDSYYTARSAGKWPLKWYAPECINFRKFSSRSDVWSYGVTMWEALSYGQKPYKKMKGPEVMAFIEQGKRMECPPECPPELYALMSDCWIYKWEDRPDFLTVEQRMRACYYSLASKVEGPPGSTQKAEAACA
Sequence of Macrophage colony-stimulating factor 1 receptor (Homo sapiens) (P07333 whole entry, the tested form may be a part): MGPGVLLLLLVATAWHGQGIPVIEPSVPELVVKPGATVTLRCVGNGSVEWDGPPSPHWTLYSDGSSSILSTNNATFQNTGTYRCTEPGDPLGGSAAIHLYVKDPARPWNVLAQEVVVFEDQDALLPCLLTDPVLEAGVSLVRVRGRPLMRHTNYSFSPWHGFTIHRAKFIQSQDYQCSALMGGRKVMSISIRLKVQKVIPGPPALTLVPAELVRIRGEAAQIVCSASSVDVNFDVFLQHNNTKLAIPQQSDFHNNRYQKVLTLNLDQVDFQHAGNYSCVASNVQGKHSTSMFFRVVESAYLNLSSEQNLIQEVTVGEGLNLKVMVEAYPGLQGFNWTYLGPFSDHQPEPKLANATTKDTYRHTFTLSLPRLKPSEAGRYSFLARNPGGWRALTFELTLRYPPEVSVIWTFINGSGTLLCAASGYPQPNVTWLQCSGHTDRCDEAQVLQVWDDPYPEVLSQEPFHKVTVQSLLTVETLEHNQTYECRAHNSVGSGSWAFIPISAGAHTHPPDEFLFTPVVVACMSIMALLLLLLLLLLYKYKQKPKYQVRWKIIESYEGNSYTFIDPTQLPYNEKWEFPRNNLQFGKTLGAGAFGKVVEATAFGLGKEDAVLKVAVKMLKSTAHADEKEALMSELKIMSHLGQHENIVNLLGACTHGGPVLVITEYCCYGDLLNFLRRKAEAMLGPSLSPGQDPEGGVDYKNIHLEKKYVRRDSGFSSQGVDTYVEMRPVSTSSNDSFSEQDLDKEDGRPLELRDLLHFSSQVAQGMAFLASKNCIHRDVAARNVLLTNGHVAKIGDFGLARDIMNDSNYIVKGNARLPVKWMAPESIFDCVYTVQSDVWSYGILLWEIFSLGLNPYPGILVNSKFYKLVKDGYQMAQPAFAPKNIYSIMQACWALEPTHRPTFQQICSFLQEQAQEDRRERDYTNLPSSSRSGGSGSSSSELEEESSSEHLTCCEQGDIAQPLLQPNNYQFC
Sequence of CYP2D6 (P10635 whole entry): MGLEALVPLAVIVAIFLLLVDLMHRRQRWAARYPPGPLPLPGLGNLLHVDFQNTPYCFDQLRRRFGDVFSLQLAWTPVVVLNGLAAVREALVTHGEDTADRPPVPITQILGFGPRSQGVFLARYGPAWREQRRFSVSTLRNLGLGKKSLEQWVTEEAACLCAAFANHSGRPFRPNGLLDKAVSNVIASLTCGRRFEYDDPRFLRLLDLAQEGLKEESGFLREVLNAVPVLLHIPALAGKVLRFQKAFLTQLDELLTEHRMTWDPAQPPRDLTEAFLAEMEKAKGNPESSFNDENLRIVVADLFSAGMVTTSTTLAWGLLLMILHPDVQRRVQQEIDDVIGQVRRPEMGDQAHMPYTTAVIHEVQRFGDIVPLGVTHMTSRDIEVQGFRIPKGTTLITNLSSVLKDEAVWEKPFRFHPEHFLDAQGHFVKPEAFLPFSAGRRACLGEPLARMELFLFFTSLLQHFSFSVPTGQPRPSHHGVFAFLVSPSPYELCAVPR
Sequence of Serine/threonine-protein kinase B-raf (Homo sapiens) (P15056 whole entry): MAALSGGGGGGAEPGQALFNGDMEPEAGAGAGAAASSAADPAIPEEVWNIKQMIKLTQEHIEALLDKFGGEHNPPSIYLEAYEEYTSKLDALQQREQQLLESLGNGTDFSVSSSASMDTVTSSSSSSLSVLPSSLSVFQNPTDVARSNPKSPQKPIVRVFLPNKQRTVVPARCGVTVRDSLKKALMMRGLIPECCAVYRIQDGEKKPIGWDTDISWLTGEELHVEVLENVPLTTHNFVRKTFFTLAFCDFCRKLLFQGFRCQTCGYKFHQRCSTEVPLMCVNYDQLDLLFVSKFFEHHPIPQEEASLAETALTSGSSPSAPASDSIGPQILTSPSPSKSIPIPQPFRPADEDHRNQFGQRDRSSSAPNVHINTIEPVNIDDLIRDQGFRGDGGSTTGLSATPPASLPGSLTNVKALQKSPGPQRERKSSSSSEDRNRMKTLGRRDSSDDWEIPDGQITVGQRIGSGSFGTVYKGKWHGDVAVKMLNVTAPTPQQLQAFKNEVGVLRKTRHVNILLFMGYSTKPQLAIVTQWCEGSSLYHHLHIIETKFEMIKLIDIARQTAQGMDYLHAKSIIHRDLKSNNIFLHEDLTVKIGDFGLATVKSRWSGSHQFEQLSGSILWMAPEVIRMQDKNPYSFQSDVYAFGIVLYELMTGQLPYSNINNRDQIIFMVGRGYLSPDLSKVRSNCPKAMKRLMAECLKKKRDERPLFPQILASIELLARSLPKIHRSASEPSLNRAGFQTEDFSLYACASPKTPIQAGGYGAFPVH
Sequence of Discoidin domain-containing receptor 2 (Homo sapiens) (Q16832 whole entry, the tested form may be a part): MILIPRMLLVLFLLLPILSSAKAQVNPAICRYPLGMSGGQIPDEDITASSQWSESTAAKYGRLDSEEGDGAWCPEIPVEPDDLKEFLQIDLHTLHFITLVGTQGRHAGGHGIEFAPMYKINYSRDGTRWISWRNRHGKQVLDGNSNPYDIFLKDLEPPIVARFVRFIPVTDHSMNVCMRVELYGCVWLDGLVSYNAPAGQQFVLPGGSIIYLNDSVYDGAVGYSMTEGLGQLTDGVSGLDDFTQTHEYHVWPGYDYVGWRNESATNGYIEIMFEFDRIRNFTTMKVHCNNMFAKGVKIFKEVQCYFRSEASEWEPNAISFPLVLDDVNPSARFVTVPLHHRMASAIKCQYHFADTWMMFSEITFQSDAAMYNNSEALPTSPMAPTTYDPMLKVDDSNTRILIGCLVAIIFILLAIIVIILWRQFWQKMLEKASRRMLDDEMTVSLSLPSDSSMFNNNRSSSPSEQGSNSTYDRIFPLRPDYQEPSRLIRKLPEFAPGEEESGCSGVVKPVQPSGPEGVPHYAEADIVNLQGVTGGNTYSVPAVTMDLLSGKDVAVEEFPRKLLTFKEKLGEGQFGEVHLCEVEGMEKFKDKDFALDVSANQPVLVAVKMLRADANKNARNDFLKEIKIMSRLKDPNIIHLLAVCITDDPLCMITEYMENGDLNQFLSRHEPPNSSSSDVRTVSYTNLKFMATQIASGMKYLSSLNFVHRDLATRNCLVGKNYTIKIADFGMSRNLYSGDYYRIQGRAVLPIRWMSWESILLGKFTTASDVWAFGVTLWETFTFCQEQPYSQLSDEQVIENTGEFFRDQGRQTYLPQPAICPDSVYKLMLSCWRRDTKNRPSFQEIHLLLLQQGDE
Sequence of CYP3A4 (P08684 whole entry): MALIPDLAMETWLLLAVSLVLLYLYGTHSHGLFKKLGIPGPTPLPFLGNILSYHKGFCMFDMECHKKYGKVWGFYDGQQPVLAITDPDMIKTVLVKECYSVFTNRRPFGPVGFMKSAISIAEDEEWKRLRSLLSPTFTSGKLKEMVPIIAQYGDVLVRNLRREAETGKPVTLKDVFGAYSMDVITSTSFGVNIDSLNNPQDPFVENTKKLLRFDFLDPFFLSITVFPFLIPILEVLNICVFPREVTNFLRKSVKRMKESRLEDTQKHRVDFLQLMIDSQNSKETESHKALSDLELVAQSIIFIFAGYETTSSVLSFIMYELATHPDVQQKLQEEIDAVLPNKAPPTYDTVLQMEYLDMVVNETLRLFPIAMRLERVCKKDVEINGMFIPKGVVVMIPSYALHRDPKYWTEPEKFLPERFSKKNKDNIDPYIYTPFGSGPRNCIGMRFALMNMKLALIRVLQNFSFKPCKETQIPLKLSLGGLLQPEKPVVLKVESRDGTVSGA
Sequence of Tyrosine-protein kinase BTK (Homo sapiens) (Q06187 whole entry): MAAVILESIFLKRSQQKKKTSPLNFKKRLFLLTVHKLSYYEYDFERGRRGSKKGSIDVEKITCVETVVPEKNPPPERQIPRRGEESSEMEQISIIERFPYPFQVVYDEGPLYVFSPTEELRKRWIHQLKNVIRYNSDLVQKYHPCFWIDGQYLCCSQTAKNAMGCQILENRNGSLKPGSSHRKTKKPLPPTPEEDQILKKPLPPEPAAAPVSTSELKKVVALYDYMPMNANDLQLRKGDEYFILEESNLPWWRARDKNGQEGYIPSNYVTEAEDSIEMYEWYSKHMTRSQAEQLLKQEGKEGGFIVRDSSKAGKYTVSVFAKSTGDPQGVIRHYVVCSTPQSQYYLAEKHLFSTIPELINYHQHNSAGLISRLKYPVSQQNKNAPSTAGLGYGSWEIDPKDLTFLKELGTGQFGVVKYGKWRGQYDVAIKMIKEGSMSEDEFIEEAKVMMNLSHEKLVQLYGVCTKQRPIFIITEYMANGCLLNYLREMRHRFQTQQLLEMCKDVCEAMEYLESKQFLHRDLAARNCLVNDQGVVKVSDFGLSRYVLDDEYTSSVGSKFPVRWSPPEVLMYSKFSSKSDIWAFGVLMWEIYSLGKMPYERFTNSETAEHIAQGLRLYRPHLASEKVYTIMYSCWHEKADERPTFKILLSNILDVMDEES

Structure (SMILES): COc1cc(C(=O)NC2CCNCC2)ccc1Nc1nc(Nc2ccccc2P(C)(C)=O)c2cc[nH]c2n1
- inhibition [1]: -3%
- inhibition [2]: 23%
- inhibition [3]: 1%
- inhibition [4]: 6%
- inhibition [5]: 1%
- inhibition [6]: 12%
- inhibition [7]: 3%
- inhibition [8]: 0%
- inhibition [9]: 3%
- inhibition at 0.25 h, 10 µM (CYP3A4): 10.5%
- inhibition at 0.25 h, 10 µM (CYP2D6): 10.7%
- inhibition at 0.25 h, 10 µM (CYP1A2): 1.5%
- CLH [10]: < 17.3 mL/min/kg
- microsomal CLint at 1 µM [11]: 10.1 µL/min/mg
- remaining at 1 h, 1 µM [12]: 81.2%
- remaining at 1 h, 1 µM [13]: 78%
- remaining at 1 h, 1 µM [14]: 75.4%
- half-life at 1 µM [15]: 1.79 h
- half-life at 1 µM [16]: > 2.42 h
- Activity (A549 [17]): Dose-dependent effect
- Activity (A549 [18]): 36.59%
- Activity (A549 [19]): 4.72%
- Activity (A549 [20]): 17.3%
- Activity (A549 [21]): 9.62%
- Activity (A549 [22]): 13.27%
- IC50 (Focal adhesion kinase 1): 0.0054 µM
- IC50 (A549 [23]): 3.2 µM
- IC50 (MDA-MB-231): 17.4 µM
